Where “and” joins values, the source holds several entries; their conditions need not be identical. Equal values may be shown once.
Tests used:
human recombinant MAO-B = target: T1, human recombinant MAO-B (Homo sapiens, UniProt P27338); assay: MAO-Glo MAO-B inhibition assay; format: biochemical
T1 construct: purchased Sigma-Aldrich
T1 sequence (P27338 1-520): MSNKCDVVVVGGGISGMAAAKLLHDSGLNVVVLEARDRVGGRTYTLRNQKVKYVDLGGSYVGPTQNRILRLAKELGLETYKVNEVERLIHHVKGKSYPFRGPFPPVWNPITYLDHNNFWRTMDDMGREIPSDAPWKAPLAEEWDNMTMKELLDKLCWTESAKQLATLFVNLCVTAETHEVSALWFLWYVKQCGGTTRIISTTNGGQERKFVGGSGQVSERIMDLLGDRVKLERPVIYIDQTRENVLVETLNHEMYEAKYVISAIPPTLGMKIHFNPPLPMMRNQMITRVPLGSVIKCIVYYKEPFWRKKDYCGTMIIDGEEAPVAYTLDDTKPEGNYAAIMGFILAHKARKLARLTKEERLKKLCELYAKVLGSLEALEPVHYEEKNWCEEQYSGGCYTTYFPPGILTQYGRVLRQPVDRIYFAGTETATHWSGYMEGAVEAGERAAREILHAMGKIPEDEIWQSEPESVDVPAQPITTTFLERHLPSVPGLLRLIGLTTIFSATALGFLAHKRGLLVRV
Protocol: (§1) MAO inhibition assays were performed using a MAO-Glo™ Assay kit (Promega) according to the manufacturer’s instructions. Briefly, 1 µg of human recombinant MAO-A and MAO-B enzyme isoforms were incubated with 160 and 16 µM of MAO substrates, respectively. […] The enzyme reaction was quenched by the addition of a luciferin detection reagent. […] An equal volume of dimethyl sulfoxide (0.1%) was added to the enzyme assay as a control. After 1 h of incubation, the luminescence was measured with a multimode microplate reader (Synergy HT, BioTek, Winooski, VT, USA) to determine the MAO enzyme activities. Initially, the inhibition potential of all the test compounds was evaluated at a concentration of 100 μM. The control reaction (with no inhibitor) with vehicle (DMSO 0.1%) was set at 100% activity. To determine IC50 of the test compounds, the dose dependent enzyme assays were performed. We used range of 0.1 to 50 μM concentrations for MAO-A and 0.1 to 200 μM concentrations of test compounds for the MAO-B enzyme activities. The type of enzyme inhibition was determined using variable concentrations of MAO-A substrate (10–360 µM) and MAO-B substrate (2–64 µM) for the respective enzyme assay. […] A Lineweaver–Burk double reciprocal plot was generated, and the mode of inhibition was determined by visual examination of the plot. The slope of the reciprocal plots was plotted against the inhibitor concentrations and determined the x-axis intercept that represented the inhibitor constant, Ki value.

human recombinant MAO-A = target: T2, human recombinant MAO-A (Homo sapiens, UniProt P21397); assay: MAO-Glo MAO-A inhibition assay; format: biochemical; conditions: 100 µM
T2 construct: purchased Sigma-Aldrich
T2 sequence (P21397 1-527): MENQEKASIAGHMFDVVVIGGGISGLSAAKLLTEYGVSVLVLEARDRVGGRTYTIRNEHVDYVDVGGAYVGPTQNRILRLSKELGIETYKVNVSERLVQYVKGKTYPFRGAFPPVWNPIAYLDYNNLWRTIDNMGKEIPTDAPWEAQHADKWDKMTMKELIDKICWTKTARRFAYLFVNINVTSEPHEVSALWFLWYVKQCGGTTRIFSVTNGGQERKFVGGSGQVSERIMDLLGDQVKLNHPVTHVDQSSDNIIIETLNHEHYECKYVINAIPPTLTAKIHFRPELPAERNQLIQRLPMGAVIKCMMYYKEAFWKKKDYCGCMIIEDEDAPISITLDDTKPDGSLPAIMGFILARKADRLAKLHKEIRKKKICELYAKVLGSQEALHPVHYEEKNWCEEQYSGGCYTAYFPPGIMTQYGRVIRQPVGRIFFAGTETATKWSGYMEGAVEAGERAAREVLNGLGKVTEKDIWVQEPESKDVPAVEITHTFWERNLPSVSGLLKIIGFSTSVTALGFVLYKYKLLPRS
Protocol: as §1

## O=c1oc2c(O)c(O)cc3c(=O)oc4c(O)c(O)cc1c4c23 [EA, ellagic acid]
Human recombinant MAO-B; 100 μM
  inhibition at 100 µM: 20 to 30%
Human recombinant MAO-B; 100 µM (Figure 1C), N=1-3, 100 µM
  MAO-B enzyme assay, Percent of control: 89.6601% of control and 87.5901% of control
Human recombinant MAO-B; 100 µM (Figure 1C), N=1-3, read-out: MAO-B enzyme assay, Percent of control
  remaining activity at 100 µM: 88.7%
Human recombinant MAO-A; 100 µM (Figure 1A), N=1-3
  MAO-A enzyme assay, Percent of control: 80.5551% of control and 100.559% of control and 100.148% of control
Human recombinant MAO-A; compared to vehicle
  inhibition of MAO-A enzyme activity: failed to inhibit

— PMC7345905, “Microbial Metabolite Urolithin B Inhibits Recombinant Human Monoamine Oxidase A Enzyme” (Metabolites, 2020)
